Laboratory results from PMC8472287, “Betulinic Acid Decorated with Polar Groups and Blue Emitting BODIPY Dye: Synthesis, Cytotoxicity, Cell-Cycle Analysis and Anti-HIV Profiling” (Biomedicines, 2021).
Structures can show the parent of a compound that is named as a salt. Where two headings read alike, the source gives them in different places.

Key:
[1] = test system: U2OS; test: MTS cytotoxicity assay, U2OS; assay type: cell-based; conditions: Homo sapiens, 72 h, 3-day incubation
Method in brief: (§1)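 Cells seeded at 25,000–35,000 cells/mL were exposed to four-fold dilutions of compound in DMSO for 72 h at 37 °C, 5% CO2. MTS added for 1–4 h, OD read at 490 nm; tumour cell survival calculated as percent of control-well OD.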

[2] = test system: CCRF-CEM lymphoblasts; test: BrDU incorporation analysis (DNA synthesis); assay type: cell-based, human; conditions: 24 h incubation
Protocol: Cells were cultivated as in the method above and pulse-labelled with 10 μM 5-bromo-2-deoxyuridine (BrDU) for 30 min before collection to the test tubes. The cells were washed with cold 1 × PBS and fixed in ice-cold 70% ethanol. Before analysis, they were washed with 1 × PBS and incubated in 2M HCl for 30 min at room temperature. Following neutralization with 0.1M Na2B4O7 (borax), the cells were washed with 0.5% Tween-20 and 1% BSA in 1 × PBS. The cell pellets were stained using a primary anti-BrdU antibody (Exbio, Vestec, Czech Republic) for 30 min at room temperature and a secondary anti-mouse-FITC antibody (Sigma). The samples were then incubated with propidium iodide (0.1 mg mL^−1), treated with RNase A (0.5 mg mL^−1) for 1 h at room temperature in the dark and analysed as above.

[3] = test system: HEK 293 cells; conditions: Resazurin assay
[4] = test system: CCRF-CEM lymphoblasts; test: Mitotic marker pH3Ser10 flow cytometry; assay type: cell-based, human; conditions: 5 × IC50
Protocol: (§2) CCRF-CEM cells were seeded in 6-well plates at a density of 1 × 10^6/well. […] Cells were then harvested, washed with cold 1 × PBS and fixed in ice-cold 70% ethanol. Fixed cells were incubated overnight at −20 °C, washed in hypotonic citrate buffer, treated with RNase (50 μg mL^−1) and incubated with propidium iodide for 15 min. DNA content was analysed using Becton Dickinson flow cytometer and cell cycle data were analysed in the program ModFitLT (Verity, Carrollton, TX, USA). Apoptosis was measured in a logarithmic model expressing the percentage of the particles with propidium content lower than cells in G0/G1 phase (<G1) of the cell cycle. The mitotic marker pH3Ser10 antibody (Sigma) and secondary anti-mouse-FITC antibody (Sigma) were used for labelling and subsequent flow cytometry analysis of ethanol-fixed CCRF-CEM cells.

[5] = test system: CCRF-CEM; test: MTS cytotoxicity assay, CCRF-CEM; assay type: cell-based; conditions: Homo sapiens, 72 h, 3-day incubation
Method in brief: as §1

[6] = test system: entire cell line panel
[7] = test system: CCRF-CEM lymphoblasts; test: BrU incorporation analysis (RNA synthesis); assay type: cell-based, human; conditions: 24 h, 5 × IC50 (high concentration)
[8] = test system: MRC-5; test: MTS cytotoxicity assay, MRC-5; assay type: cell-based; conditions: Homo sapiens, MRC5, 72 h, MRC-5 normal fibroblasts, 3-day incubation
Method in brief: as §1

[9] = test system: BJ; test: MTS cytotoxicity assay, BJ; assay type: cell-based; conditions: Homo sapiens, 72 h, BJ normal fibroblasts, 3-day incubation
Method in brief: as §1

[10] = test system: CEM-DNR; test: MTS cytotoxicity assay, CEM-DNR; assay type: cell-based; conditions: Homo sapiens, 72 h, CEM-DNR (daunorubicin resistant), 3-day incubation
Method in brief: as §1

[11] = test system: HCT116; test: MTS cytotoxicity assay, HCT116; assay type: cell-based; conditions: Homo sapiens, HCT-116, 72 h, 3-day incubation
Method in brief: as §1

[12] = test system: K562; test: MTS cytotoxicity assay, K562; assay type: cell-based; conditions: Homo sapiens, 72 h, 3-day incubation
Method in brief: as §1

[13] = test system: HCT116p53−/−; test: MTS cytotoxicity assay, HCT116p53−/−; assay type: cell-based; conditions: Homo sapiens, HCT116-p53-null, 72 h, HCT116p53−/− (null p53 gene), 3-day incubation
Method in brief: as §1

[14] = test system: A549; test: MTS cytotoxicity assay, A549; assay type: cell-based; conditions: Homo sapiens, 72 h, 3-day incubation
Method in brief: as §1

[15] = test system: K562-Tax; test: MTS cytotoxicity assay, K562-Tax; assay type: cell-based; conditions: Homo sapiens, 72 h, K562-Tax (paclitaxel-resistant), 3-day incubation
Method in brief: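 Cells were seeded at 25,000–35,000 cells/mL, exposed to compounds in DMSO from time zero for 72 h at 37 °C, 5% CO2, then given MTS for 1–4 h with OD read at 490 nm. Survival was expressed as percent of mean untreated-control OD.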

[16] = test system: entire cell line panel; test: MTS cytotoxicity assay, whole panel (summary in words); conditions: maximal tested concentration
[17] = test system: CCRF-CEM lymphoblasts; test: Cell cycle and apoptosis analysis (flow cytometry, propidium iodide); assay type: cell-based, human; conditions: 5 × IC50
Protocol: as §2

Row | Compound | IC50 [1] [nM] | fraction of proliferating BrDU positive CCRF-CEM cells (in words) [2] | concentration at which highly toxic to HEK 293 cells [3] | rate of cell division by mitotic marker pH3Ser10 (in words) [4] | IC50 [5] [nM] | cytotoxic effect in the cell line panel (in words) [6] | RNA synthesis by BrU (in words) [7] | IC50 [8] [nM] | IC50 [9] [nM] | IC50 [10] [nM] | IC50 [11] [nM] | IC50 [12] [nM] | IC50 [13] [nM] | IC50 [14] [nM] | IC50 [15] [nM] | cytotoxic effect in the cell line panel (in words) [16] | increase of the percentage of cells in the S-phase compared to untreated control [17]
1 | C=C(C)[C@@H]1CC[C@]2(C(=O)NCCCN)CC[C@]3(C)[C@H](CC[C@@H]4[C@@]5(C)CC[C@H](O)C(C)(C)[C@@H]5CC[C@]43C)[C@@H]12 [Compound 3, (3β)-N-(3-Aminopropyl)-3-hydroxylup-20(29)-ene-28-amide] | 890 | reduced the fraction of proliferating BrDU positive CCRF-CEM cells | lower than 5 µM | low rate of cell division | 210 | high cytotoxicity | stalled RNA synthesis | 2590 | 1910 | 1220 | 820 | 900 | 440 | 1800 | 370 | – | –
2 | C=C(C)[C@@H]1CC[C@]2(C(=O)O)CC[C@]3(C)[C@H](CC[C@@H]4[C@@]5(C)CC[C@H](O)C(C)(C)[C@@H]5CC[C@]43C)[C@@H]12 [BA, Betulinic acid] | 29700 | – | – | – | > 50000 | – | – | > 50000 | > 50000 | 23000 | > 50000 | > 50000 | > 50000 | 22700 | > 50000 | weak or medium cytotoxic effect | –
3 | C=C(C)[C@@H]1CC[C@]2(C(=O)N3CCN(CCN)CC3)CC[C@]3(C)[C@H](CC[C@@H]4[C@@]5(C)CC[C@H](O)C(C)(C)[C@@H]5CC[C@]43C)[C@@H]12 [Compound 14, (3β)-28-[4-(2-Aminoethyl)piperazine-1-yl]-3-hydroxylup-20(29)-ene-28-one hydrochloride] | 420 | reduced the fraction of proliferating BrDU positive CCRF-CEM cells | lower than 5 µM | low rate of cell division | 290 | high cytotoxicity | stalled RNA synthesis | 1580 | 1590 | 350 | 390 | 400 | 440 | 1260 | 520 | – | about 50%
